US20240238426A1, “PROTEIN ACYLATION MODULATION BY HETEROBIFUNCTIONAL MOLECULES” (THE SCRIPPS RESEARCH INSTITUTE, priority 2021, published 2024)

Key:
[1] = tested on: H3.3-FKBP12^F36V HeLa cells; assay: Quantitative acetylproteomics of H3.3-FKBP12^F36V HeLa cells; type: cell-based, Human; conditions: 2 μM SAHA, FIG. 5E
Method: Sample preparation: Frozen cell pellets were thawed on ice and lysed in a buffer containing 50 mM Tris-HCl (pH 7.5), 150 mM NaCl, 1 mM EDTA, 1% NP-40, 0.1% sodium deoxycholate, 5 mM sodium butyrate, 10 mM nicotinamide and 1X Pierce™ protease inhibitor cocktail. Cells were sonicated to ensure complete lysis, mixed with 5 M NaCl at a ratio of 1:10 with sample volume and incubated on ice for 15 min to release chromatin-bound proteins. Cell lysates were then sonicated again to shear genomic DNA. Cellular debris was cleared by centrifugation at 16,000 g for 20 min at 4° C., protein concentration was determined using a Pierce™ BCA assay and ˜10 mg of protein was aliquoted for acetyl-proteomic analysis. Proteins were denatured with 8 M urea in 50 mM HEPES, reduced with 5 mM dithiothreitol for 30 min at 56° C., then alkylated with 5 mM iodoacetamide for 20 min in the dark at RT. Following alkylation, proteins were precipitated using chloroform-methanol as previously described, and protein pellets were dried at 56° C. for 15 min. Proteins pellets were resuspended in 1 M urea in 50 mM HEPES and digested in a two-step process with LysC and trypsin as previously described. Digested peptides were desalted using Phenomenex Strata-X polymeric reverse phase extraction cartridges using the following protocol. Cartridges were conditioned with 1 mL 100% acetonitrile, 1 mL 80% acetonitrile/0.5% AA, and 1 mL 0.1% TFA. Peptides were then loaded on to the cartridge at a reduced flow rate and desalted with 5 mL 0.1% TFA followed by 1 mL 0.5% AA. Desalted peptides were eluted using 1 mL 40% acetonitrile/0.5% AA followed by 1 mL 80% acetonitrile/0.5% AA and lyophilized. Digested peptides were quantified using the Pierce™ Quantitative Colorimetric Peptide Assay and […] was aliquoted from each for total protein analysis while the remaining peptide was lyophilized and retained for acetyl-peptide enrichment.
Acetyl-peptide Enrichment: Acetyl-peptides were enriched using the PTMScan® Acetyl-Lysine Motif [Ac-K] Kit according to manufacturer instructions. […]

[2] = tested on: p21 (CDKNIA), PUMA, MDM2, and GLS2; assay: Immunoblot of p53 target gene expression in FKBP12^F36V-p53 H1299 cells; type: cell-based, Human; conditions: 8 hr; for effect of co-treatment on AceTAG-1 induced p21 expression: 3 μM AceTAG-1 with 10 μM A485 or 50 μM FKBP12^F36V-binding ligand, FIG. 7E
Method: (§1) Immunoblotting: Cells were harvested in cold DPBS by scraping and washed with cold DPBS twice. Cell pellets were resuspended in DPBS supplemented with 5 mM sodium butyrate, 20 mM Nicotinamide, and 1X Halt Protease Inhibitor Cocktail and lysed by sonication (15 ms on, 40 ms off, 15% amplitude, 1s total on x 3). Protein concentration was determined using DC Protein Assay (Bio-Rad) and absorbance read using a CLARIOstar plate reader following manufacturer's instructions. Samples with equal protein content were boiled in 4X SDS gel loading buffer for 10 min. Proteins were separated by 10%, 12.5%, or 15% SDS-polyacrylamide gel electrophoresis and transferred to PVDF membranes using Trans-Blot Turbo RTA Mini […] LF PVDF Transfer Kit (Bio-Rad). Membranes were incubated for 1 h at room temperature with blocking buffer, followed by incubating overnight at 4° C. with primary antibodies. After washing in TBST, the secondary antibodies were incubated with the membranes at room temperature for 1 h. The membranes were washed with TBST for three times and visualized on a Bio-Rad ChemiDoc MP Imaging System with Clarity Max Western ECL substrate (Bio-Rad) or SuperSignal West Femto Chemiluminescent substrate proprietary luminol and peroxide solution kit (Thermo Scientific Pierce).

[3] = target: T1, H3.3-FKBP12^F36V (Homo sapiens, UniProt P62942+Q09472, F37V); assay: Immunoblot analysis of H3.3-FKBP12^F36V acetylation in HeLa cells; type: cell-based; conditions: for acetylation of H3.3: HeLa cells, FIG. 8
T1 construct: expressed in transfected cells
Method: (§2) Lentivirus Production and Transduction: Lentiviral production was performed using HEK293T cells, which were co-transfected with pMD2.G (Addgene, #12259), psPAX2 (Addgene, #12260), and AceTAG lentiviral plasmids using PEI (Polysciences Inc). Viral particles were collected 72 h after transfection and filtered through a […] membrane. A range of dilutions of the lentivirus in DMEM complete and 10 μg/mL polybrene were added to HeLa, H1299, or HeLa RelA KO cell lines. Transduced cells were selected with 1 μg/mL or 2 μg/mL puromycin.
as §1

[4] = target: 6xHis-p300-BRD (active motif #31372) (UniProt Q09472); assay: AlphaScreen, GST-FKBP12^F36V and 6xHis-p300-BRD with a titration of the small molecule AceTAG-1; bell-shaped curve
[5] = tested on: T2, FKBP12^F36V-RelA (Homo sapiens, F37V); assay: Immunoblot analysis of FKBP12^F36V-RelA acetylation in RelA-/- HeLa cells; type: cell-based; conditions: 625 nM AceTAG-1 with 50 μM FKBP ligand or 1 μM A485, 2 hr, FIG. 6B
T2 construct: expressed in transfected cells
Method: as §2, §1

[6] = tested on: T3, FKBP12^F36V-p53 (Homo sapiens, F37V); assay: Immunoblot analysis of FKBP12^F36V-p53 acetylation in H1299 cells; type: cell-based; conditions: 625 nM AceTAG-1 with 50 μM FKBP ligand or 1 μM A485, 2 hr, FIG. 6D
T3 construct: expressed in transfected cells
Method: as §2, §1

T1 sequence (P62942 2-108 F37V limits assumed): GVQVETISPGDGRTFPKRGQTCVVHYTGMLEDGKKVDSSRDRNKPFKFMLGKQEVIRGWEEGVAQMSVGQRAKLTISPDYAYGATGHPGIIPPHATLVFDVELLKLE
T1 sequence (Q09472 2-2414 limits assumed, stated change not applied): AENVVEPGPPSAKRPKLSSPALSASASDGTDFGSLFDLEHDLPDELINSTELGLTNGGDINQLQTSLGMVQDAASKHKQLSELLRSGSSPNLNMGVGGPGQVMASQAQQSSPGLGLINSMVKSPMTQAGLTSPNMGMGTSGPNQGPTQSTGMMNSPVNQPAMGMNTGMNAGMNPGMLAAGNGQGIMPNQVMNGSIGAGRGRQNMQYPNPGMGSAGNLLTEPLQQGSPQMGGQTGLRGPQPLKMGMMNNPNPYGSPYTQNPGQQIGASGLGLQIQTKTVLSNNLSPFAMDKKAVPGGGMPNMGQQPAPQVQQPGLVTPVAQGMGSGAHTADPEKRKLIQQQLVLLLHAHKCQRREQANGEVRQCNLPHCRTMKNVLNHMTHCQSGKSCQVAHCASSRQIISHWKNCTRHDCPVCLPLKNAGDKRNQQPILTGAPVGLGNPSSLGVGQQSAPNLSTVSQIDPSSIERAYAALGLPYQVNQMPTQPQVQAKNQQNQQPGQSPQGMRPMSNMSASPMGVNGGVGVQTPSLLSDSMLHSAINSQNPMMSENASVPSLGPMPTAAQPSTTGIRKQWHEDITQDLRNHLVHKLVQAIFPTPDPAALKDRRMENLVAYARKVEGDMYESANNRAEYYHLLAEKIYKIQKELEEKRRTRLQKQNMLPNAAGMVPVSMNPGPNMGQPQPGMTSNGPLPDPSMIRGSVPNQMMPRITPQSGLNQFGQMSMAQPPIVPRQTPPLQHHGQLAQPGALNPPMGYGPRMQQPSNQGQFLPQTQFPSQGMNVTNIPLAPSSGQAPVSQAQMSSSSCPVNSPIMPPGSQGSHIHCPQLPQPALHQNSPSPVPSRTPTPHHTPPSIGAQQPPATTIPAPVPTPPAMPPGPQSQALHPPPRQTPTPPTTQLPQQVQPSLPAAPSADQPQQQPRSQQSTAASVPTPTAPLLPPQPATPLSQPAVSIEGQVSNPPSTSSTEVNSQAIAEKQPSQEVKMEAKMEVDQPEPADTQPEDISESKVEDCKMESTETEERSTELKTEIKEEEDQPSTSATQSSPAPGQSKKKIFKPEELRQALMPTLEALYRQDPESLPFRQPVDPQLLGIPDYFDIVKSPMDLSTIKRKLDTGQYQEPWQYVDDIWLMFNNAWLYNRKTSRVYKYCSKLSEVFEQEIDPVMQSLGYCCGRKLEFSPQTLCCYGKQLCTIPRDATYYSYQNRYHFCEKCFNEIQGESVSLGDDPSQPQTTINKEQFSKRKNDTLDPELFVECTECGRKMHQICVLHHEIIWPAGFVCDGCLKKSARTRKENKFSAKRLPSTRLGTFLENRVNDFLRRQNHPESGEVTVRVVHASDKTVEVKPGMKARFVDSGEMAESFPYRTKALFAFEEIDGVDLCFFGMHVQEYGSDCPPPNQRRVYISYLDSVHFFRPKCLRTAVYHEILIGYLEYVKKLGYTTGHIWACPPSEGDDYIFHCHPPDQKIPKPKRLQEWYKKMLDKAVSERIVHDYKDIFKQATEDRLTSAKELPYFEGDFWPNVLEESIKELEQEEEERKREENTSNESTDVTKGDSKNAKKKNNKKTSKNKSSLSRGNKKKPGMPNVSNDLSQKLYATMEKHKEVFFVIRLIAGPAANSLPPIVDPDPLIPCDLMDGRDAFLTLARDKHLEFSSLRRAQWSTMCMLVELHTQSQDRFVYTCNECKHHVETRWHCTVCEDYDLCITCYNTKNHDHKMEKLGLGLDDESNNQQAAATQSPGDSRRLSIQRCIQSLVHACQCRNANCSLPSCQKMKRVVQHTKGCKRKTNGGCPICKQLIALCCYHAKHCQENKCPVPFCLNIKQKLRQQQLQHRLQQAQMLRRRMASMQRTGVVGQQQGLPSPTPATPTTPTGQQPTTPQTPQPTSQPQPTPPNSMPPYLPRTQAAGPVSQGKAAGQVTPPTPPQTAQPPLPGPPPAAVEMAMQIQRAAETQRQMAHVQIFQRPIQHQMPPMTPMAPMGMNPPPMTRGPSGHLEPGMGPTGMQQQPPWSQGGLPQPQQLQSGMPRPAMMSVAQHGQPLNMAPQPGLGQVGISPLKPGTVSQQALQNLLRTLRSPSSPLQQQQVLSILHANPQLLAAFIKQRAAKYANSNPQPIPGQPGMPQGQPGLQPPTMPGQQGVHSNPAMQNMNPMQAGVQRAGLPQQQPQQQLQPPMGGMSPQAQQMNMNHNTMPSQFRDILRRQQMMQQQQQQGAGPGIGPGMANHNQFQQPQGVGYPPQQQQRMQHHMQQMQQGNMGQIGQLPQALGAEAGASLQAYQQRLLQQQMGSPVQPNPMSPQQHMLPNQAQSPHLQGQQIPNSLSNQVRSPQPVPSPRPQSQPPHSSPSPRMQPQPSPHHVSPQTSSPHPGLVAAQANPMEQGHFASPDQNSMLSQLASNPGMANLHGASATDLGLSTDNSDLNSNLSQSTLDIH
Sequence of 6xHis-p300-BRD (active motif #31372) (Q09472 1040-1161 limits assumed): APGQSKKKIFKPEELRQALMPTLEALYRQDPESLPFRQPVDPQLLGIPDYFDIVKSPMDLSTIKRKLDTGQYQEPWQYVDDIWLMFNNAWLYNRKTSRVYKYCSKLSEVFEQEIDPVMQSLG
T3 sequence (P62942 2-108 F37V limits assumed): as the sequence (P62942 2-108 F37V limits assumed) above
T3 sequence (Q09472 2-2414 limits assumed, stated change not applied, further chain): as the sequence (Q09472 2-2414 limits assumed, stated change not applied) above
T2 sequence (P62942 2-108 F37V limits assumed): as the sequence (P62942 2-108 F37V limits assumed) above
T2 sequence (Q09472 2-2414 limits assumed, stated change not applied, further chain): as the sequence (Q09472 2-2414 limits assumed, stated change not applied) above

O=C(CCCCCCC(=O)Nc1ccccc1)NO [SAHA, Vorinostat, reference compound] was tested, and the “number of proteins with increased acetylation relative to DMSO” value [1] was ~30 proteins.

For CNC(=O)Nc1ccc2c(c1)CC[C@@]21OC(=O)N(CC(=O)N(Cc2ccc(F)cc2)[C@@H](C)C(F)(F)F)C1=O [A485, reference compound], the “effect of co-treatment on AceTAG-1 induced p21 expression” value [2] was “blocked”.

With CC[C@H](C(=O)N1CCCC[C@H]1C(=O)O[C@H](CCc1ccc(OC)c(OC)c1)c1cccc(OCC(=O)NCCCCCCCC(=O)NCCOc2ccc(CCc3nc4cc(-c5c(C)noc5C)ccc4n3CCN3CCOCC3)cc2)c1)c1cc(OC)c(OC)c(OC)c1 [AceTAG-3, (R)-3-(3,4-dimethoxyphenyl)-1-(3-(2-((8-((2-(4-(2-(5-(3,5-dimethylisoxazol-4-yl)-1-(2-morpholinoethyl)-1H-benzo[d]imidazol-2-yl)ethyl)phenoxy)ethyl)amino)-8-oxooctyl)amino)-2-oxoethoxy)phenyl)propyl (S)-1-((S)-2-(3,4,5-trimethoxyphenyl)butanoyl)piperidine-2-carboxylate] the “acetylation of H3.3” value [3] was “significant acetylation of H3.3”.

“GST-FKBP12^F36V (from UniProt P62942 2-108)” showed an AceTAG-1 concentration at maximum ternary complex formation [4] of 1 µM.

With CC[C@H](C(=O)N1CCCC[C@H]1C(=O)O[C@H](CCc1ccc(OC)c(OC)c1)c1cccc(OCC(=O)NCCOCCOCCOCCC(=O)NCCOc2ccc(CCc3nc4cc(-c5c(C)noc5C)ccc4n3CCN3CCOCC3)cc2)c1)c1cc(OC)c(OC)c(OC)c1 [AceTAG-2, (R)-3-(3,4-dimethoxyphenyl)-1-(3-((18-(4-(2-(5-(3,5-dimethylisoxazol-4-yl)-1-(2-morpholinoethyl)-1H-benzo[d]imidazol-2-yl)ethyl)phenoxy)-2,15-dioxo-6,9,12-trioxa-3,16-diazaoctadecyl)oxy)phenyl)propyl (S)-1-((S)-2-(3,4,5-trimethoxyphenyl)butanoyl)piperidine-2-carboxylate] the “acetylation of H3.3” value [3] was “significant acetylation of H3.3”.

CCCNC(=O)COc1cccc([C@@H](CCc2ccc(OC)c(OC)c2)OC(=O)[C@@H]2CCCCN2C(=O)[C@@H](CC)c2cc(OC)c(OC)c(OC)c2)c1 [FKBP-c, (R)-3-(3,4-dimethoxyphenyl)-1-(3-(2-oxo-2-(propylamino)ethoxy)phenyl)propyl (S)-1-((S)-2-(3,4,5-trimethoxyphenyl)butanoyl)piperidine-2-carboxylate] was tested, and the “effect of co-treatment on AceTAG-1 induced acetylation of H3.3-FKBP12^F36V” value ([3]; 625 nM AceTAG-1 with 50 μM FKBP ligand or 1 μM A485, 2 hr, FIG. 4D) was “blocked”, the “effect of co-treatment on AceTAG-1 induced RelA acetylation” value [5] was “blockade of induced acetylation” and the “effect of co-treatment on AceTAG-1 induced p53 acetylation” value [6] was “blockade of induced acetylation”. For the same compound, the “effect of co-treatment on AceTAG-1 induced p21 expression” value [2] was “blocked” and the “p21 expression level with ligand alone” value ([2]; 3 μM, compared to 3 μM AceTAG-1, FIG. 7E) was “neither p300 nor FKBP ligand alone increases p21 expression level”.

In the case of CC[C@H](C(=O)N1CCCC[C@H]1C(=O)OC(CCc1ccc(OC)c(OC)c1)c1cccc(OCC(=O)NCCCCCCCC(=O)NCCOc2ccc(CCc3nc4cc(-c5c(C)noc5C)ccc4n3CCN3CCOCC3)cc2)c1)c1cc(OC)c(OC)c(OC)c1 (some centres unmarked) [AceTAG-4], the “acetylation of H3.3” value [3] is reported as “significant acetylation of H3.3”.
